The target of one experiment is human Gal-3 (hGal-3) (Homo sapiens (Human), UniProt P17931). Briefly: Competitive binding assay: binding of biotinylated hGal-3 to microplate-adsorbed asialofetuin (ASF). The settings on record: Activity on hGal-3; mean values of several measurements. In a few lines:
(§1)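 Biotin-hGal-3/hGal-1 300-1000 ng/mL + cpd (DMSO dilutions) on ASF-coated plate, 3 h 4° C; wash; SA-HRP 80 ng/mL 1 h 4° C; wash; ABTS. IC50 = mean of several runs. hGal-1 preferably Cys→Ser (all six) mutant.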

The target of another experiment is human Gal-1 (hGal-1). Briefly: Competitive binding assay: binding of biotinylated hGal-1 to microplate-adsorbed asialofetuin (ASF). The settings on record: Activities on hGal-1; mean values of several measurements. In a few lines: as §1
Sequence of human Gal-1 (hGal-1) (P09382 2-135 limits assumed): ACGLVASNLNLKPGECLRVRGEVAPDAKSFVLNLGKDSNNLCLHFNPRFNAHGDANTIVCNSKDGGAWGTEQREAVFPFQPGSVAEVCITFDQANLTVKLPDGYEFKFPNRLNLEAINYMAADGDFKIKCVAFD

Each structure is given as a SMILES string. pIC50: −log10 of the molar value.

Sequence of human Gal-3 (hGal-3) (P17931 whole entry): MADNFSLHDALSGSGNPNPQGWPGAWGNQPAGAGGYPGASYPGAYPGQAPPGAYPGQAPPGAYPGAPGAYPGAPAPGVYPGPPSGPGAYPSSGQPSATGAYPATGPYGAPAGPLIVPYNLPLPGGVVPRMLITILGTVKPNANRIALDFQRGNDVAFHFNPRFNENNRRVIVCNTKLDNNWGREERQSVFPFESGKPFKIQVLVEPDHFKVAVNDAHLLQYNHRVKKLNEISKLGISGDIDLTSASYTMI

For the compound `CCNC(=O)N1CCC(c2cc(C[C@H]3O[C@H](CO)[C@H](O)[C@H](n4cc(-c5cc(F)c(F)c(F)c5)nn4)[C@H]3O)no2)CC1` [Example 3.27, 4-(3-(((2R,3R,4R,5R,6R)-3,5-dihydroxy-6-(hydroxymethyl)-4-(4-(3,4,5-trifluorophenyl)-1H-1,2,3-triazol-1-yl)tetrahydro-2H-pyran-2-yl)methyl)isoxazol-5-yl)-N-ethylpiperidine-1-carboxamide], the figures for the pIC50 at human Gal-3 (hGal-3) and at human Gal-1 (hGal-1) were 7.49 and 6.06, respectively.

`CS(=O)(=O)N1CCC(c2cc(C[C@H]3O[C@H](CO)[C@H](O)[C@H](n4cc(-c5cc(F)c(F)c(F)c5)nn4)[C@H]3O)no2)CC1` [Example 3.28, (2R,3R,4R,5R,6R)-2-(hydroxymethyl)-6-((5-(1-(methylsulfonyl)piperidin-4-yl)isoxazol-3-yl)methyl)-4-(4-(3,4,5-trifluorophenyl)-1H-1,2,3-triazol-1-yl)tetrahydro-2H-pyran-3,5-diol]: the pIC50 at human Gal-3 (hGal-3) was 7.42; at human Gal-1 (hGal-1), 5.91.

As for `CN1CCC(c2cc(C[C@H]3O[C@H](CO)[C@H](O)[C@H](n4cc(-c5cc(F)c(F)c(F)c5)nn4)[C@H]3O)no2)CC1` [Example 3.29, (2R,3R,4R,5R,6R)-2-(hydroxymethyl)-6-((5-(1-methylpiperidin-4-yl)isoxazol-3-yl)methyl)-4-(4-(3,4,5-trifluorophenyl)-1H-1,2,3-triazol-1-yl)tetrahydro-2H-pyran-3,5-diol], the pIC50 on human Gal-3 (hGal-3) was 6.57; on human Gal-1 (hGal-1), 4.80.

Take `CC(C)(C)C(=O)N1CCC(c2cc(C[C@H]3O[C@H](CO)[C@H](O)[C@H](n4cc(-c5cc(F)c(F)c(F)c5)nn4)[C@H]3O)no2)CC1` [Example 3.30, 1-(4-(3-(((2R,3R,4R,5R,6R)-3,5-dihydroxy-6-(hydroxymethyl)-4-(4-(3,4,5-trifluorophenyl)-1H-1,2,3-triazol-1-yl)tetrahydro-2H-pyran-2-yl)methyl)isoxazol-5-yl)piperidin-1-yl)-2,2-dimethylpropan-1-one]: the results for the pIC50 at human Gal-3 (hGal-3) and at human Gal-1 (hGal-1) were 6.80 and 5.44, respectively.

For `CCOC(=O)N1CCC(c2cc(C[C@H]3O[C@H](CO)[C@H](O)[C@H](n4cc(-c5cc(F)c(F)c(F)c5)nn4)[C@H]3OC)no2)CC1` [Example 3.31, ethyl 4-(3-(((2R,3R,4S,5R,6R)-5-hydroxy-6-(hydroxymethyl)-3-methoxy-4-(4-(3,4,5-trifluorophenyl)-1H-1,2,3-triazol-1-yl)tetrahydro-2H-pyran-2-yl)methyl)isoxazol-5-yl)piperidine-1-carboxylate], the values for the pIC50 at human Gal-3 (hGal-3) and on human Gal-1 (hGal-1) were 7.14 and 6.07, respectively.

In the case of `COC(=O)N1CCC(c2cc(C[C@H]3O[C@H](CO)[C@H](O)[C@H](n4cc(-c5cc(F)c(F)c(F)c5)nn4)[C@H]3OC)no2)CC1` [Example 3.32, methyl 4-(3-(((2R,3R,4S,5R,6R)-5-hydroxy-6-(hydroxymethyl)-3-methoxy-4-(4-(3,4,5-trifluorophenyl)-1H-1,2,3-triazol-1-yl)tetrahydro-2H-pyran-2-yl)methyl)isoxazol-5-yl)piperidine-1-carboxylate], the pIC50 on human Gal-3 (hGal-3) is 7.34; at human Gal-1 (hGal-1), 6.21.

For `CO[C@@H]1[C@@H](n2cc(-c3cc(F)c(F)c(F)c3)nn2)[C@@H](O)[C@@H](CO)O[C@@H]1Cc1cc(C2CCN(C(=O)C(C)C)CC2)on1` [Example 3.33, 1-(4-(3-(((2R,3R,4S,5R,6R)-5-hydroxy-6-(hydroxymethyl)-3-methoxy-4-(4-(3,4,5-trifluorophenyl)-1H-1,2,3-triazol-1-yl)tetrahydro-2H-pyran-2-yl)methyl)isoxazol-5-yl)piperidin-1-yl)-2-methylpropan-1-one], the values for the negative logarithm of the IC50 (pIC50) on human Gal-3 (hGal-3) and at human Gal-1 (hGal-1) were 7.19 and 5.97, respectively.

Regarding `CO[C@@H]1[C@@H](n2cc(-c3cc(F)c(F)c(F)c3)nn2)[C@@H](O)[C@@H](CO)O[C@@H]1Cc1cc(C2CCN(C(=O)C(C)(C)C)CC2)on1` [Example 3.34, 1-(4-(3-(((2R,3R,4S,5R,6R)-5-hydroxy-6-(hydroxymethyl)-3-methoxy-4-(4-(3,4,5-trifluorophenyl)-1H-1,2,3-triazol-1-yl)tetrahydro-2H-pyran-2-yl)methyl)isoxazol-5-yl)piperidin-1-yl)-2,2-dimethylpropan-1-one], the figures for the pIC50 at human Gal-3 (hGal-3) and at human Gal-1 (hGal-1) were 6.92 and 5.82, respectively.

As to `CCCC(=O)N1CCC(c2cc(C[C@H]3O[C@H](CO)[C@H](O)[C@H](n4cc(-c5cc(F)c(F)c(F)c5)nn4)[C@H]3OC)no2)CC1` [Example 3.35, 1-(4-(3-(((2R,3R,4S,5R,6R)-5-hydroxy-6-(hydroxymethyl)-3-methoxy-4-(4-(3,4,5-trifluorophenyl)-1H-1,2,3-triazol-1-yl)tetrahydro-2H-pyran-2-yl)methyl)isoxazol-5-yl)piperidin-1-yl)butan-1-one], the values for the pIC50 at human Gal-3 (hGal-3) and on human Gal-1 (hGal-1) were 7.32 and 6.03, respectively.

For `CCNC(=O)N1CCC(c2cc(C[C@H]3O[C@H](CO)[C@H](O)[C@H](n4cc(-c5cc(F)c(F)c(F)c5)nn4)[C@H]3OC)no2)CC1` [Example 3.37, N-ethyl-4-(3-(((2R,3R,4S,5R,6R)-5-hydroxy-6-(hydroxymethyl)-3-methoxy-4-(4-(3,4,5-trifluorophenyl)-1H-1,2,3-triazol-1-yl)tetrahydro-2H-pyran-2-yl)methyl)isoxazol-5-yl)piperidine-1-carboxamide], the pIC50 on human Gal-3 (hGal-3) was 7.01; on human Gal-1 (hGal-1) it was 5.96.

As for `CO[C@@H]1[C@@H](n2cc(-c3cc(F)c(F)c(F)c3)nn2)[C@@H](O)[C@@H](CO)O[C@@H]1Cc1cc(C2CCN(C(=O)NC(C)C)CC2)on1` [Example 3.38, 4-(3-(((2R,3R,4S,5R,6R)-5-hydroxy-6-(hydroxymethyl)-3-methoxy-4-(4-(3,4,5-trifluorophenyl)-1H-1,2,3-triazol-1-yl)tetrahydro-2H-pyran-2-yl)methyl)isoxazol-5-yl)-N-isopropylpiperidine-1-carboxamide], the pIC50 on human Gal-3 (hGal-3) is 7.37; at human Gal-1 (hGal-1) it was 6.35.

On to `CO[C@@H]1[C@@H](n2cc(-c3cc(F)c(F)c(F)c3)nn2)[C@@H](O)[C@@H](CO)O[C@@H]1Cc1cc(C2CCN(C)CC2)on1` [Example 3.39, (2R,3R,4S,5R,6R)-2-(hydroxymethyl)-5-methoxy-6-((5-(1-methylpiperidin-4-yl)isoxazol-3-yl)methyl)-4-(4-(3,4,5-trifluorophenyl)-1H-1,2,3-triazol-1-yl)tetrahydro-2H-pyran-3-ol], for which the pIC50 on human Gal-3 (hGal-3) was 6.59; at human Gal-1 (hGal-1), 5.29.

Take `CO[C@@H]1[C@@H](n2cc(-c3cc(F)c(F)c(F)c3)nn2)[C@@H](O)[C@@H](CO)O[C@@H]1Cc1cc(C2CCN(CC(C)C)CC2)on1` [Example 3.41, (2R,3R,4S,5R,6R)-2-(hydroxymethyl)-6-((5-(1-isobutylpiperidin-4-yl)isoxazol-3-yl)methyl)-5-methoxy-4-(4-(3,4,5-trifluorophenyl)-1H-1,2,3-triazol-1-yl)tetrahydro-2H-pyran-3-ol]: the figures for the pIC50 on human Gal-3 (hGal-3) and on human Gal-1 (hGal-1) were 6.64 and 5.53, respectively.

With `CO[C@@H]1[C@@H](n2cc(-c3cc(F)c(F)c(F)c3)nn2)[C@@H](O)[C@@H](CO)O[C@@H]1Cc1cc(C2CCN(CCC(C)(C)C)CC2)on1` [Example 3.42, (2R,3R,4S,5R,6R)-6-((5-(1-(3,3-dimethylbutyl)piperidin-4-yl)isoxazol-3-yl)methyl)-2-(hydroxymethyl)-5-methoxy-4-(4-(3,4,5-trifluorophenyl)-1H-1,2,3-triazol-1-yl)tetrahydro-2H-pyran-3-ol], the negative-log IC50 (pIC50) on human Gal-3 (hGal-3) was 6.85; at human Gal-1 (hGal-1), 5.23.

For the compound `CO[C@@H]1[C@@H](n2cc(-c3cc(F)c(F)c(F)c3)nn2)[C@@H](O)[C@@H](CO)O[C@@H]1Cc1cc(C2CCN(CC3CC3)CC2)on1` [Example 3.43, (2R,3R,4S,5R,6R)-6-((5-(1-(cyclopropylmethyl)piperidin-4-yl)isoxazol-3-yl)methyl)-2-(hydroxymethyl)-5-methoxy-4-(4-(3,4,5-trifluorophenyl)-1H-1,2,3-triazol-1-yl)tetrahydro-2H-pyran-3-ol], the pIC50 at human Gal-3 (hGal-3) is 6.89; on human Gal-1 (hGal-1) it was 5.55.

As to `CO[C@@H]1[C@@H](n2cc(-c3cc(F)c(F)c(F)c3)nn2)[C@@H](O)[C@@H](CO)O[C@@H]1Cc1cc(C2CCN(CC3COC3)CC2)on1` [Example 3.44, (2R,3R,4S,5R,6R)-2-(hydroxymethyl)-5-methoxy-6-((5-(1-(oxetan-3-ylmethyl)piperidin-4-yl)isoxazol-3-yl)methyl)-4-(4-(3,4,5-trifluorophenyl)-1H-1,2,3-triazol-1-yl)tetrahydro-2H-pyran-3-ol], the pIC50 is 6.25 on human Gal-3 (hGal-3) and 5.27 at human Gal-1 (hGal-1).

For the compound `CO[C@@H]1[C@@H](n2cc(-c3cc(F)c(F)c(F)c3)nn2)[C@@H](O)[C@@H](CO)O[C@@H]1Cc1cc(C2CCN(S(C)(=O)=O)CC2)on1` [Example 3.45, (2R,3R,4S,5R,6R)-2-(hydroxymethyl)-5-methoxy-6-((5-(1-(methylsulfonyl)piperidin-4-yl)isoxazol-3-yl)methyl)-4-(4-(3,4,5-trifluorophenyl)-1H-1,2,3-triazol-1-yl)tetrahydro-2H-pyran-3-ol], the pIC50 on human Gal-3 (hGal-3) was 7.43; on human Gal-1 (hGal-1), 6.31.

For the compound `CCCS(=O)(=O)N1CCC(c2cc(C[C@H]3O[C@H](CO)[C@H](O)[C@H](n4cc(-c5cc(F)c(F)c(F)c5)nn4)[C@H]3OC)no2)CC1` [Example 3.46, (2R,3R,4S,5R,6R)-2-(hydroxymethyl)-5-methoxy-6-((5-(1-(propylsulfonyl)piperidin-4-yl)isoxazol-3-yl)methyl)-4-(4-(3,4,5-trifluorophenyl)-1H-1,2,3-triazol-1-yl)tetrahydro-2H-pyran-3-ol], the pIC50 is 7.36 on human Gal-3 (hGal-3) and 6.24 at human Gal-1 (hGal-1).

A word on the pIC50: it is the IC50 on a negative log10 scale, so that one unit is a factor of ten. High values mean a low IC50, low ones a high IC50.

These data come from patent US12319672B2, “Alpha-D-galactopyranoside derivatives” (Idorsia Pharmaceuticals Ltd, priority 2019, dated 2025).
